The results in this text go back to ChEMBL document CHEMBL4177708, “N-Arylsulfonylsubstituted-1H indole derivatives as small molecule dual inhibitors of signal transducer and activator of transcription 3 (STAT3) and tubulin” (Bioorg Med Chem, 2018).

For series [1], the target named is Signal transducer and activator of transcription 3 (Homo sapiens) (UniProt P40763). Description: Inhibition of STAT3 phosphorylation at Tyr-705 residue in human MDA-MB-231 cells after 12 hrs by Western blot analysis. The class given is cell-based.
A short description of series [2]: Solubility of the compound in 0.1% DMSO. It is filed as physicochemical.
The subject of series [3] is A549. In words: […] of beta-tubulin polymerization in human A549 cells at 1 uM after 12 to 24 hrs by DAPI staining based confocal microscopic method. It is filed as cell-based.
The target of series [4] is Signal transducer and activator of transcription 3 (Homo sapiens) (UniProt P40763). In words: Inhibition of IL-6-stimulated STAT3 phosphorylation at Tyr-705 residue in human MDA-MB-231 cells at 1 to 4 uM preincubated for 2 hrs followed by IL-6 stimulation measured after 30 mins by Western blot analysis. It is filed as cell-based.
In series [5] the test system is A549. Description: Inhibition of beta-tubulin polymerization in human A549 cells at 1 uM after 12 to 24 hrs by DAPI staining based confocal microscopic method. The class given is cell-based.
The target of series [6] is Signal transducer and activator of transcription 3 (Homo sapiens) (UniProt P40763). Description: Inhibition of STAT3 phosphorylation at Tyr-705 residue in human MDA-MB-231 cells at 8 to 10 uM after 12 hrs by Western blot analysis. The class given is cell-based.

Activity calls are given as the source filed them. The rule behind the calls is not given here.

Chain of Signal transducer and activator of transcription 3 (Homo sapiens) (P40763 whole entry): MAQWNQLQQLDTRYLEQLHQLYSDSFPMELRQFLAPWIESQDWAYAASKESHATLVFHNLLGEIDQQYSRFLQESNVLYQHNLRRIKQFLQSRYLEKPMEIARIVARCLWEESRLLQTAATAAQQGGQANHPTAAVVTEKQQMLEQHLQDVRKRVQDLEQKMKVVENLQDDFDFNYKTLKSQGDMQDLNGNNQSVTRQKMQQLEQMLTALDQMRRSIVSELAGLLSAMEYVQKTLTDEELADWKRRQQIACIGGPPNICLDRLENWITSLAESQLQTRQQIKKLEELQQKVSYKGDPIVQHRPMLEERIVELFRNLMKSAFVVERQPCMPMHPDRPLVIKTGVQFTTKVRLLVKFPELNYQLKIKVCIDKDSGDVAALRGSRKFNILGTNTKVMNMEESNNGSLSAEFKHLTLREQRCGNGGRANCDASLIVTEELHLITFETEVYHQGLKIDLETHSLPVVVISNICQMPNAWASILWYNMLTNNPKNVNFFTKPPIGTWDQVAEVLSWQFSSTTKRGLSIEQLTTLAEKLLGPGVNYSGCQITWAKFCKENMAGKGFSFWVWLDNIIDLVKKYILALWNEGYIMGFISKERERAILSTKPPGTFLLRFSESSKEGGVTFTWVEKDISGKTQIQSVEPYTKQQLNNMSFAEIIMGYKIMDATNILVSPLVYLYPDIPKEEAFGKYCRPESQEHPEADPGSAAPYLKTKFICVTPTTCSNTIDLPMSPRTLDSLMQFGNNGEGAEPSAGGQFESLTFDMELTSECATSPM

In the case of `COc1ccc(S(=O)(=O)n2ccc3cccc(-c4ccc(S(C)(=O)=O)cc4)c32)cc1`, the inhibition entry in series [1] is “Dose-dependent effect”. For `COc1ccc(S(=O)(=O)n2cc(Cl)c3cccc(-c4ccc(Cl)cc4)c32)cc1`, the solubility result in series [2] is recorded as “Insoluble”.

Consider `CC(=O)O[C@H]1C(=O)[C@@]2(C)[C@H]([C@H](OC(=O)c3ccccc3)[C@]3(O)C[C@H](OC(=O)[C@H](O)[C@@H](NC(=O)c4ccccc4)c4ccccc4)C(C)=C1C3(C)C)[C@]1(OC(C)=O)CO[C@@H]1C[C@@H]2O`, for which the outcome with A549 [3] was Active. As for `COc1ccc(S(=O)(=O)n2ccc3cccc(-c4ccc(C#N)c(F)c4)c32)cc1`, in series [1], the inhibition result was “Dose-dependent effect”. The inhibition result in series [4] was “Active”.

On to `COc1ccc(S(=O)(=O)n2ccc3cccc(Nc4ccc(C#N)c(F)c4)c32)cc1`, for which the inhibition result in series [1] was “Dose-dependent effect”. Regarding `COc1cc2c(c(OC)c1OC)-c1ccc(OC)c(=O)cc1[C@@H](NC(C)=O)CC2`, the inhibition result with A549 [5] was “Active”. With `O=C(C1=Cc2cc(Br)ccc2S1(=O)=O)N1CCCCC1`, the inhibition result in series [6] was “Active”.
